Assays:
tumor cell lines = settings: cited from earlier work
[1] = tested on: 10 cytokines in peripheral blood; experiment: Cytokines in peripheral blood (Luminex); format: in vivo, human
Method: (§1) Assessment of pharmacodynamics included evaluation of cullin-NEDD8, p27^Kip1 protein expression, and cytokines in peripheral blood samples. Expression of cullin-NEDD8 protein in peripheral blood mononuclear cells (PBMC) was analyzed using an enzyme-linked immunosorbent assay (ELISA). For the weekly dosing cohorts, changes from baseline in cullin-NEDD8 complexes in the PBMC on Day 1 and Day 2 of Cycle 1 as measured by ELISA were evaluated. For the weekly dosing with lead-in period cohorts, changes from baseline in cullin-NEDD8 complexes on Day 2 were evaluated. Expression of p27^Kip1 protein (cyclin-dependent kinase inhibitor 1B), a substrate of CRL, was determined by immunohistochemistry (IHC). p27^Kip1 IHC was performed on biopsy tumor specimens collected at baseline and Day 2 of Cycle 1, and their staining intensities were assessed using H-Scoring, with the scores compared between baseline and Day 2 of Cycle 1. […]

[2] = parameters: method as in unpublished data; settings: TAS4464 combined with TNF-α; ref unpublished data; cited from earlier work
[3] = tested on: cullin-NEDD8 complexes in PBMC; experiment: Cullin-NEDD8 protein in PBMC by ELISA; format: in vivo, human
Method: as §1

[4] = tested on: patients with advanced or metastatic solid tumors; experiment: Phase 1 study: dose-limiting toxicities and maximum tolerated dose; format: in vivo
Method: The highest non-severely toxic dose was derived from a dog toxicology study and was used to calculate a clinical starting dose of 10 mg/m^2, which corresponds to one-sixth of the human-equivalent dose. The maximum tolerated dose (MTD) of TAS4464 was investigated using an accelerated titration design. Initially, the starting TAS4464 dose was 10 mg/m^2 and was followed by an initial accelerated stage (i.e., weekly dosing phase) with 100% dose-step increments (level 1: 10 mg/m^2, level 2: 20 mg/m^2, level 3: 40 mg/m^2, and level 4: 56 mg/m^2). The 100% dose-step increments continued until the occurrence of a grade ≥ 2 drug-related toxicity within Cycle 1; dose-limiting toxicity (DLT) within Cycle 1; the next dose level reaching 60 mg/m^2; or any safety concerns. Thereafter, 40% increments were employed in the standard stage.
In the standard stage, three to six patients were to be enrolled, and the dose was escalated in 40% increments if none of the first three patients experienced a DLT. If one patient experienced a DLT, three additional patients were to be enrolled at the same dose level. If two of three or two of six patients experienced a DLT, the dose escalation was to be ceased. […] Additionally, DLT criteria regarding abnormal liver function and discontinuation criteria for study drug administration were added. The TAS4464 dose level for Day 1 of Cycle 1 was then set to 40 mg/m^2 (level 3).
The primary objective of the study was to investigate DLTs. Treatment-related adverse events (AEs) during the lead-in period and Cycle 1 were included in the assessment of DLT, which was defined as follows: 1) grade 4 neutropenia lasting >7 days or neutropenia requiring treatment; 2) grade 4 thrombocytopenia or thrombocytopenia requiring blood transfusion; 3) febrile neutropenia; 4) grade ≥ 3 nausea, vomiting, or diarrhea lasting >48 h and uncontrolled by treatment; 5) grade ≥ 3 aspartate aminotransferase (AST) increase or alanine aminotransferase (ALT) increase lasting ≥3 days; or 6) any other grade ≥ 3 non-hematologic toxicity.

In the case of `CCOc1cccc(F)c1C#Cc1cn([C@@H]2O[C@H](CNS(N)(=O)=O)[C@@H](O)[C@H]2O)c2ncnc(N)c12` [TAS4464], the “inhibitory effects in cells” value (tumor cell lines; compared with MLN4924) is given as “greater inhibitory effects than MLN4924”, the “time course of antiproliferative effects” value (tumor cell lines; dose- and time-dependent increase) is given as “plateauing after 24 h” and the “expression levels of the 10 cytokines in peripheral blood” value ([1]; five patients, weekly dosing with lead-in period cohort) is given as “no changes in the expression levels”. For the same molecule, the “peak expression of IL-1β, IFNγ, IL-12p40, IL-12p70, IL-17A, IL-1α and IL-2 versus baseline” value ([1]; one patient, weekly dosing with lead-in level 3, Day 3 of Cycle 1) was “more than four times higher than at baseline”, the “abnormal liver function tests” value [2] was “Abnormal liver function tests were also observed” and the “cullin-NEDD8 complex measurements in PBMC versus baseline” value ([3]; Day 1 of Cycle 1, no dose-dependency) was “lower than those at baseline in all patients”. For the same molecule, the “cullin-NEDD8 complex measurements in PBMC versus baseline” value ([3]; Day 2 of Cycle 1, dose dependency not observed) was “lower than those at baseline, with the exception of two patients”, the MTD ([4]; weekly dosing regimen) was “could not be determined” and the “DLT incidence (grade 3 ALT increased and grade 3 AST increased)” value ([4]; weekly dosing with lead-in period, dose level 4 (56 mg/m^2)) was 1/5. For the same molecule, the “DLT incidence (grade 4 ALT increased)” value ([4]; weekly dosing, dose level 4 (56 mg/m^2), DLT-evaluable population) was 1/5 and one of five patients.

Reference: article PMC8279981, “A first-in-human, phase 1 study of the NEDD8 activating enzyme E1 inhibitor TAS4464 in patients with advanced solid tumors” (Investigational New Drugs, 2021)
